Measured values from patent publication EP1350523B1 (priority 1992, dated 1994).

Tested on: vascular smooth muscle cells
Test: 24 hour 3H-thymidine DNA synthesis inhibition assay compared with 24 hour 3H-leucine protein inhibition assay
Format: cell-based
Settings: for therapeutic range (area under the curve of 3H-leucine assay greater than that of 3H-thymidine assay): 24 hour exposure, 5% FBS; for protein synthesis inhibition and cytotoxicity at concentrations where significant DNA synthesis inhibition occurs: Example 8, Figs. 10A-10C
Protocol: The ability of various therapeutic agents to inhibit DNA synthesis and protein synthesis in vascular smooth muscle cells was tested. ^3H-leucine and ^3H-thymidine uptake and cytotoxicity assays were conducted in accordance with the following protocols.
3H-leucine uptake: Vascular smooth muscle cells at 40,000 cells/ml were seeded in sterile 24 well plates at 1ml/well. The plates were incubated overnight at 37°C, 5% CO2, 95% air in a humidified atmosphere (saturation). Log dilutions of the therapeutic agent of interest were incubated with the vascular smooth muscle cells for 5 minutes or 24 hours. Samples of the therapeutic agents were diluted in DMEM: F-12 media (Whittaker Bioproducts, Walkersville, Maryland) with 5% fetal bovine serum (GBS. Gibco) and 5% Serum Plus® (JRH Biologicals). Following therapeutic agent incubation, the solution was aspirated, and 1ml/well of 0.5 microcurie/ml ^3H-leucine in leucine free DMEM (Dulbecco's Modified Eagle's Medium) with 5% Serum Plus® was added. The plates were re-incubated overnight at 37°C, 5% CO2 in a humidified atmosphere. The cells were visually graded using an inverted microscope using a scoring scale to determine viability and cell number. The 1 to 3 grade is based upon percent of cell viability and number compared to control wells, with 3=100%, 2=70%-100% and 1=0%-70%. A record of this scoring assisted in determining the immediate cytotoxic effect of the therapeutic agents. The media was then aspirated, and the cells were washed twice with cold 5% TCA. 400 microliters of 0.2M NaOH was added per well, and the plates were incubated for two hours at room temperature on a rotating platform. 200 microliters per well of the cell solution was transferred into plastic scintillation vials (Bio-Rad Laboratories), and 4 milliliters of Bio-Safe® II liquid scintillation fluid was added prior to vortexing. Vials were counted on a Beckman LS2800 Liquid Scintillation Counter interfaced with Beckman "Data Capture" software for conversion to a Lotus 1-2-3® file and analysis using Lotus 1-2-3®.
^3H-thymidine uptake: Vascular smooth muscle cells were incubated in complete media with 5% FBS (Gibco) overnight at 37°C in a humidified, 5% CO2 environment in sterile 24 well plates. The media was aspirated from the wells and serum free media supplemented with growth factors (DMEM: F-12 basal media supplemented with growth factor cocktail catalog number I1884 which contains insulin (5 micrograms/ml), transferrin (5 micrograms/ml) and sodium selenite (5 nanograms/ml) available from Sigma Chemical, St. Louis, Missouri) was added. Cells were incubated in this media for 24 hours. For a 5 minute therapeutic agent exposure, log dilutions of the therapeutic agent were incubated with the cells in complete media. After 5 minutes and media aspiration, 1 ml/well of 1.0 microcurie/ml ^3H-thymidine dispersed in complete media was added. The 24 hour exposure involved incubation of the cells with 1 ml/well of 1.0 microcurie/ml of ^3H-thymidine dispersed in complete media and log dilutions of the therapeutic agent being tested. In both exposure trials, the cells were then incubated overnight at 37°C in a humidified, 5% CO2 environment. The cells were visually scored for viability and cell number. […] Vials were counted on a Beckman LS2800 Liquid Scintillation Counter interfaced with Beckman "Data Capture" software for conversion to a Lotus 1-2-3° file and analysis using Lotus 1-2-30®.

## O=[N+]([O-])OCC(CO[N+](=O)[O-])O[N+](=O)[O-] [nitroglycerin]
  therapeutic range (area under the curve of 3H-leucine assay greater than that of 3H-thymidine assay): showed an available therapeutic range
  protein synthesis inhibition and cytotoxicity at concentrations where significant DNA synthesis inhibition occurs: minimal protein synthesis inhibition and cytotoxicity

## Cc1ccc(C(=O)Nc2ccc(S(=O)(=O)O)c3cc(S(=O)(=O)O)cc(S(=O)(=O)O)c23)cc1NC(=O)c1cccc(NC(=O)Nc2cccc(C(=O)Nc3cc(C(=O)Nc4ccc(S(=O)(=O)O)c5cc(S(=O)(=O)O)cc(S(=O)(=O)O)c45)ccc3C)c2)c1 [suramin]
  therapeutic range (area under the curve of 3H-leucine assay greater than that of 3H-thymidine assay): showed an available therapeutic range
  protein synthesis inhibition and cytotoxicity at concentrations where significant DNA synthesis inhibition occurs: minimal protein synthesis inhibition and cytotoxicity

## CN[C@@H]1C[C@H]2O[C@@](C)([C@@H]1OC)n1c3ccccc3c3c4c(c5c6ccccc6n2c5c31)C(=O)NC4 [staurosporin]
  therapeutic range (area under the curve of 3H-leucine assay greater than that of 3H-thymidine assay): showed an available therapeutic range
